“And” between values parts separate entries of the source, which are not always exact repeats. Identical values can stand only once. Inconclusive results and toxic doses are left out. Rule as the data show it: active = T/C of 150% or more; inactive = T/C below 125%.
Tested on: L1210 leukemia ip in BDF1 mice, survival T/C
Assay: NCI In Vivo Anticancer Drug Screen. Data for tumor model L1210 Leukemia (intraperitoneal) in B6D2F1 (BDF1) mice
Conditions: endpoint: mean survival time, higher = longer survival
Method in brief: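 Ratio derived from survival: compound-dosed mice over vehicle-dosed mice, all bearing a transplantable tumor.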

[1] = dose: 100.0 mg/kg/injection, schedule: Q04DX003 (ip), vehicle: Klucel (hydroxypropylcellulose) (HPC)
[2] = dose: 50.0 mg/kg/injection, schedule: Q01DX001 (ip), vehicle: saline
[3] = dose: 100.0 mg/kg/injection, schedule: Q01DX001 (ip), vehicle: saline
[4] = dose: 200.0 mg/kg/injection, schedule: Q01DX001 (ip), vehicle: saline
[5] = dose: 400.0 mg/kg/injection, schedule: Q01DX001 (ip), vehicle: saline
[6] = dose: 200.0 mg/kg/injection, schedule: Q04DX003 (ip), vehicle: Klucel (hydroxypropylcellulose) (HPC)
[7] = dose: 400.0 mg/kg/injection, schedule: Q04DX003 (ip), vehicle: Klucel (hydroxypropylcellulose) (HPC)
[8] = dose: 100.0 mg/kg/injection, schedule: Q01DX001 (ip), vehicle: Klucel (hydroxypropylcellulose) (HPC)
[9] = dose: 200.0 mg/kg/injection, schedule: Q01DX001 (ip), vehicle: Klucel (hydroxypropylcellulose) (HPC)
[10] = dose: 400.0 mg/kg/injection, schedule: Q01DX001 (ip), vehicle: Klucel (hydroxypropylcellulose) (HPC)
[11] = dose: 100.0 mg/kg/injection, schedule: Q01DX009 (ip), vehicle: Klucel (hydroxypropylcellulose) (HPC)
[12] = dose: 200.0 mg/kg/injection, schedule: Q01DX009 (ip), vehicle: Klucel (hydroxypropylcellulose) (HPC)
[13] = dose: 400.0 mg/kg/injection, schedule: Q01DX009 (ip), vehicle: Klucel (hydroxypropylcellulose) (HPC)
[14] = dose: 100.0 mg/kg/injection, schedule: Q04DX002 (ip), vehicle: saline with Tween-80

Measured: T/C

CCC1=C(c2ccc(OC)cc2)CCC(C(=O)O)C1C (stereo unspecified)
inactive: dose: 6.0 mg/kg/injection, schedule: Q01DX Z (ip), vehicle: saline 100 % of control | dose: 12.0 mg/kg/injection, schedule: Q01DX Z (ip), vehicle: saline 96 % of control | dose: 25.0 mg/kg/injection, schedule: Q01DX Z (ip), vehicle: saline 102 % of control | dose: 50.0 mg/kg/injection, schedule: Q01DX Z (ip), vehicle: saline 100 % of control | dose: 100.0 mg/kg/injection, schedule: Q01DX Z (ip), vehicle: saline 102 % of control | dose: 200.0 mg/kg/injection, schedule: Q01DX Z (ip), vehicle: saline 100 % of control | dose: 400.0 mg/kg/injection, schedule: Q01DX Z (ip), vehicle: saline 110 % of control | dose: 800.0 mg/kg/injection, schedule: Q01DX Z (ip), vehicle: saline 98 % of control and 120 % of control

C=CCSc1nc2c(N)ncnc2n1C1OC(CO)C(O)C1O (stereo unspecified)
inactive: dose: 100.0 mg/kg/injection, schedule: Q01DX005 (ip), vehicle: saline 103 % of control | dose: 200.0 mg/kg/injection, schedule: Q01DX005 (ip), vehicle: saline 98 % of control

CCCCCCCCCCCCCCCCCC[n+]1cccc(C(=O)N2CCOCC2)c1
inactive: dose: 2.0 mg/kg/injection, schedule: Q01DX009 (ip), vehicle: Klucel (hydroxypropylcellulose) (HPC) 97 % of control | dose: 4.0 mg/kg/injection, schedule: Q01DX009 (ip), vehicle: Klucel (hydroxypropylcellulose) (HPC) 110 % of control | dose: 8.0 mg/kg/injection, schedule: Q01DX009 (ip), vehicle: Klucel (hydroxypropylcellulose) (HPC) 98 % of control | dose: 12.5 mg/kg/injection, schedule: Q04DX003 (ip), vehicle: Klucel (hydroxypropylcellulose) (HPC) 88 % of control | dose: 16.0 mg/kg/injection, schedule: Q01DX009 (ip), vehicle: Klucel (hydroxypropylcellulose) (HPC) 104 % of control | dose: 25.0 mg/kg/injection, schedule: Q04DX003 (ip), vehicle: Klucel (hydroxypropylcellulose) (HPC) 96 % of control | dose: 32.0 mg/kg/injection, schedule: Q01DX009 (ip), vehicle: Klucel (hydroxypropylcellulose) (HPC) 90 % of control | dose: 50.0 mg/kg/injection, schedule: Q04DX003 (ip), vehicle: Klucel (hydroxypropylcellulose) (HPC) 93 % of control | [1] 92 % of control

Cc1[nH]ccc2cc3nc4ccccc4c3cc12
inactive: [2] 103 % of control | [3] 104 % of control | [4] 102 % of control | [5] 103 % of control

N#CSCc1ccccc1
inactive: dose: 75.0 mg/kg/injection, schedule: Q01DX001 (ip), vehicle: carboxymethylcellulose (CMC) 118 % of control | [1] 91 % of control | dose: 150.0 mg/kg/injection, schedule: Q01DX001 (ip), vehicle: carboxymethylcellulose (CMC) 98 % of control | [6] 103 % of control | [7] 94 % of control

CCc1ccc(NC2=C(OC)C(=O)C(Nc3ccc(CC)cc3)=C(OC)C2=O)cc1
inactive: dose: 50.0 mg/kg/injection, schedule: Q01DX001 (ip), vehicle: carboxymethylcellulose (CMC) 98 % of control | dose: 100.0 mg/kg/injection, schedule: Q01DX001 (ip), vehicle: carboxymethylcellulose (CMC) 93 % of control | dose: 200.0 mg/kg/injection, schedule: Q01DX001 (ip), vehicle: carboxymethylcellulose (CMC) 98 % of control | dose: 400.0 mg/kg/injection, schedule: Q01DX001 (ip), vehicle: carboxymethylcellulose (CMC) 90 % of control

O=C(CCN1CC1)OCCCl
inactive: dose: 50.0 mg/kg/injection, schedule: Q01DX001 (ip), vehicle: Klucel (hydroxypropylcellulose) (HPC) 112 % of control | [8] 106 % of control | [9] 101 % of control | [10] 111 % of control

Cn1[nH]c(NC=O)c2cc3c(=O)[nH]c(=O)cc3nc21
inactive: [8] 93 % of control | [9] 90 % of control

Cc1cc(C)c(N(CC(=O)O)S(=O)(=O)c2ccccc2)c(C)c1F
inactive: [8] 100 % of control | [9] 94 % of control | [10] 89 % of control

O=C(c1ccccc1)N(Nc1ccccc1)c1ccccc1
inactive: dose: 50.0 mg/kg/injection, schedule: Q01DX009 (ip), vehicle: Klucel (hydroxypropylcellulose) (HPC) 94 % of control | [11] 97 % of control | [1] 98 % of control | [12] 97 % of control | [6] 93 % of control | [13] 89 % of control | [7] 98 % of control

[O-]/[N+](=C\c1ccccc1)Cc1ccccc1
inactive: dose: 100.0 mg/kg/injection, schedule: Q04DX003 (ip), vehicle: carboxymethylcellulose (CMC) 94 % of control | dose: 200.0 mg/kg/injection, schedule: Q04DX003 (ip), vehicle: carboxymethylcellulose (CMC) 97 % of control

CCCCCOc1ccc(C=Nc2ccc(C)cc2)cc1
inactive: [11] 98 % of control | [12] 103 % of control

CC(=O)ONC(=O)C(N)=O
inactive: [2] 95 % of control | [3] 101 % of control | [4] 95 % of control | [5] 103 % of control

O=NN(CCN(N=O)c1ccccc1)c1ccccc1
inactive: dose: 100.0 mg/kg/injection, schedule: Q01DX001 (ip), vehicle: other 97 % of control | dose: 100.0 mg/kg/injection, schedule: Q04DX003 (ip), vehicle: other 104 % of control | dose: 200.0 mg/kg/injection, schedule: Q01DX001 (ip), vehicle: other 97 % of control | dose: 200.0 mg/kg/injection, schedule: Q04DX003 (ip), vehicle: other 101 % of control | dose: 400.0 mg/kg/injection, schedule: Q01DX001 (ip), vehicle: other 92 % of control | dose: 400.0 mg/kg/injection, schedule: Q04DX003 (ip), vehicle: other 97 % of control

CC(=O)C(=O)Nc1ccccc1
inactive: dose: 100.0 mg/kg/injection, schedule: Q01DX001 (ip), vehicle: saline with Tween-80 94 % of control | dose: 200.0 mg/kg/injection, schedule: Q01DX001 (ip), vehicle: saline with Tween-80 91 % of control | dose: 400.0 mg/kg/injection, schedule: Q01DX001 (ip), vehicle: saline with Tween-80 94 % of control

c1ccc(C2SCCCS2)cc1
inactive: [11] 96 % of control | [12] 97 % of control | [13] 94 % of control

Ic1ccc2c(c1)OCCOCCOCCOCCO2
inactive: dose: 50.0 mg/kg/injection, schedule: Q04DX002 (ip), vehicle: saline with Tween-80 102 % of control | [14] 102 % of control | dose: 200.0 mg/kg/injection, schedule: Q04DX002 (ip), vehicle: saline with Tween-80 107 % of control

COc1ccc(Cl)cc1NC(=O)c1ccccc1C(=O)O
inactive: [11] 98 % of control | [1] 101 % of control | [12] 102 % of control | [6] 96 % of control | [13] 94 % of control | [7] 103 % of control

CCOC(=O)C(O)(NC(=O)N/N=C/c1ccccc1)C(=O)OCC
inactive: dose: 100.0 mg/kg/injection, schedule: Q01DX009 (ip), vehicle: saline with Tween-80 101 % of control | dose: 100.0 mg/kg/injection, schedule: Q04DX003 (ip), vehicle: saline with Tween-80 106 % of control | dose: 200.0 mg/kg/injection, schedule: Q01DX009 (ip), vehicle: saline with Tween-80 92 % of control | dose: 200.0 mg/kg/injection, schedule: Q04DX003 (ip), vehicle: saline with Tween-80 104 % of control | dose: 400.0 mg/kg/injection, schedule: Q01DX009 (ip), vehicle: saline with Tween-80 93 % of control | dose: 400.0 mg/kg/injection, schedule: Q04DX003 (ip), vehicle: saline with Tween-80 101 % of control

CC(C)CCCC(C)C1CCC2C3CC=C4CC(=O)CCC4(C)C3CCC12C (stereo unspecified)
inactive: [14] 98 % of control | dose: 400.0 mg/kg/injection, schedule: Q04DX002 (ip), vehicle: saline with Tween-80 88 % of control

CCNc1nnnn1CC
inactive: dose: 100.0 mg/kg/injection, schedule: Q04DX003 (ip), vehicle: saline 101 % of control | dose: 200.0 mg/kg/injection, schedule: Q04DX003 (ip), vehicle: saline 98 % of control | dose: 400.0 mg/kg/injection, schedule: Q04DX003 (ip), vehicle: saline 101 % of control

CCOC(=O)C(C(=O)Nc1ccccc1)=S(C)C
inactive: dose: 100.0 mg/kg/injection, schedule: Q04DX002 (ip), vehicle: Klucel (hydroxypropylcellulose) (HPC) 94 % of control | dose: 200.0 mg/kg/injection, schedule: Q04DX002 (ip), vehicle: Klucel (hydroxypropylcellulose) (HPC) 106 % of control | dose: 400.0 mg/kg/injection, schedule: Q04DX002 (ip), vehicle: Klucel (hydroxypropylcellulose) (HPC) 116 % of control
